For this experiment, the system named is nude mice, LX-1 lung xenograft intrarenal, tumor weight T/C. Kind of experiment: NCI In Vivo Anticancer Drug Screen. Data for tumor model Human Lung LX-1 Xenograft (intrarenal inoculation) in NU/NU Swiss (nude) mice. Conditions: endpoint: mean tumor weight change, higher = larger tumour. The method, boiled down:
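Tumor-bearing mice receive test compound or vehicle; tumor size is then measured in each group. The treated value is divided by the vehicle value to give T/C.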
In general terms: A xenograft is tissue or cells of one species grown in another, often human tumour cells in immunodeficient mice.

[1] abbreviates: dose: 12.5 mg/kg/injection, schedule: Q01DX010 (sc), vehicle: saline with Tween-80.
Setting [2] is: dose: 25.0 mg/kg/injection, schedule: Q01DX010 (sc), vehicle: saline with Tween-80.
Where [3] appears, read: dose: 100.0 mg/kg/injection, schedule: Q01DX010 (sc), vehicle: saline with Tween-80.
Setting [4] is: dose: 400.0 mg/kg/injection, schedule: Q01DX010 (sc), vehicle: saline with Tween-80.
Setting [5] is: dose: 300.0 mg/kg/injection, schedule: Q04DX003 (sc), vehicle: saline with Tween-80.
Where [6] appears, read: dose: 600.0 mg/kg/injection, schedule: Q04DX003 (sc), vehicle: saline with Tween-80.
[7] abbreviates: dose: 1200.0 mg/kg/injection, schedule: Q04DX003 (sc), vehicle: saline with Tween-80.
Where [8] appears, read: dose: 50.0 mg/kg/injection, schedule: Q01DX010 (sc), vehicle: Klucel (hydroxypropylcellulose) (HPC).
[9] abbreviates: dose: 50.0 mg/kg/injection, schedule: Q01DX010 (sc), vehicle: saline with Tween-80.

SMILES strings stand for the structures. Where “and” joins values, the source holds several entries; their conditions need not be identical. Identical values can stand only once. Inconclusive results are not listed.

As for `NC(=O)c1[nH]nc(C2OC(CO)C(O)C2O)c1O` (centres undefined), the T/C was 77 % of control (dose: 0.62 mg/kg/injection, schedule: Q04DX003 (sc), vehicle: saline); 65 % of control (dose: 1.25 mg/kg/injection, schedule: Q04DX003 (sc), vehicle: saline); 109 % of control (dose: 2.5 mg/kg/injection, schedule: Q04DX003 (sc), vehicle: saline); 78 % of control (dose: 5.0 mg/kg/injection, schedule: Q04DX003 (sc), vehicle: saline).

As to `C=C1CC2(OC1=O)C(=O)N(C)c1ccc(I)cc12` (centres undefined), the T/C is 68 % of control (dose: 150.0 mg/kg/injection, schedule: Q04DX003 (sc), vehicle: suspension in saline); 34 % of control (dose: 300.0 mg/kg/injection, schedule: Q04DX003 (sc), vehicle: suspension in saline); 34 % of control (dose: 600.0 mg/kg/injection, schedule: Q04DX003 (sc), vehicle: suspension in saline); 62 % of control (dose: 1200.0 mg/kg/injection, schedule: Q04DX003 (sc), vehicle: suspension in saline).

As for `C=CC(=O)N1CN(C(=O)C=C)CN(C(=O)C=C)C1`, the T/C reads like this: (dose: 6.25 mg/kg/injection, schedule: Q01DX010 (sc), vehicle: saline with Tween-80) 92 % of control; under setting [1], 110 % of control; under setting [2], 67 % of control.

For the compound `Nc1ncnc2c1ncn2C1OC(COP(=O)(O)O)C(O)C1O` (centres undefined), the T/C (dose: 100.0 mg/kg/injection, schedule: Q01DX010 (sc), vehicle: saline) was 38 % of control; the T/C (dose: 200.0 mg/kg/injection, schedule: Q01DX010 (sc), vehicle: saline) was 78 % of control; the T/C (dose: 400.0 mg/kg/injection, schedule: Q01DX010 (sc), vehicle: saline) is 59 % of control; the T/C (dose: 800.0 mg/kg/injection, schedule: Q01DX010 (sc), vehicle: saline) was 67 % of control.

Regarding `CC[C@](O)(C(=O)O)c1cc2n(c(=O)c1CO)Cc1cc3ccccc3nc1-2`, the T/C is -5 % of control (dose: 16.0 mg/kg/injection, schedule: Q04DX003 (sc), vehicle: saline); 25 % of control (dose: 31.25 mg/kg/injection, schedule: Q04DX003 (sc), vehicle: saline); 1 % of control (dose: 62.5 mg/kg/injection, schedule: Q04DX003 (sc), vehicle: saline); -48 % of control (dose: 125.0 mg/kg/injection, schedule: Q04DX003 (sc), vehicle: saline).

Regarding `COc1ccc(-c2csc(=[N+]3CCCCC3)s2)cc1`, the T/C reads like this: (dose: 1.56 mg/kg/injection, schedule: Q04DX003 (sc), vehicle: water) 91 % of control; (dose: 3.12 mg/kg/injection, schedule: Q04DX003 (sc), vehicle: water) 84 % of control; (dose: 6.25 mg/kg/injection, schedule: Q04DX003 (sc), vehicle: water) 72 % of control; (dose: 12.5 mg/kg/injection, schedule: Q04DX003 (sc), vehicle: water) 80 % of control.

On to `CO[C@H]1C[C@@H]2CC[C@@H](C)[C@@](O)(O2)C(=O)C(=O)N2CCCC[C@H]2C(=O)O[C@H]([C@H](C)C[C@@H]2CC[C@@H](O)[C@H](OC)C2)CC(=O)[C@H](C)C=C(C)[C@@H](O)[C@@H](OC)C(=O)[C@H](C)C[C@H](C)/C=C/C=C/C=C1C`, for which the T/C is 72 % of control under setting [3]; 47 % of control (dose: 200.0 mg/kg/injection, schedule: Q01DX010 (sc), vehicle: saline with Tween-80); 37 % of control under setting [4]; 69 % of control (dose: 800.0 mg/kg/injection, schedule: Q01DX010 (sc), vehicle: saline with Tween-80).

`Cc1cc(NCCCN(C)C)c2ccc3c(ccc4c(NCCCN(C)C)cc(C)nc43)c2n1`: the T/C is, setting by setting: (dose: 9.38 mg/kg/injection, schedule: Q04DX003 (sc), vehicle: saline with Tween-80) 86 % of control; (dose: 18.75 mg/kg/injection, schedule: Q04DX003 (sc), vehicle: saline with Tween-80) 82 % of control.

As for `Cc1cc2c(c3oc(C4(C)OC4C4OC4C)cc(=O)c13)C(=O)c1c(O)c(C3CC(C)(N(C)C)C(O)C(C)O3)cc(C3CC(N(C)C)C(O)C(C)O3)c1C2=O` (centres undefined), the T/C by setting is: (dose: 0.03 mg/kg/injection, schedule: Q01DX010 (sc), vehicle: saline) 57 % of control; (dose: 0.06 mg/kg/injection, schedule: Q01DX010 (sc), vehicle: saline) 66 % of control.

`NC(C/[N+]([O-])=N/O)C(=O)O` (centres undefined): the T/C (dose: 50.0 mg/kg/injection, schedule: Q01DX010 (sc), vehicle: saline) was 47 % of control.

For `CN(N=O)C(N)=O`, the T/C reads like this: under setting [1], -64 % of control; (dose: 12.5 mg/kg/injection, schedule: Q04DX003 (sc), vehicle: saline) 19 % of control; under setting [2], -69 % of control; (dose: 25.0 mg/kg/injection, schedule: Q04DX003 (sc), vehicle: saline) 7 % of control; (dose: 50.0 mg/kg/injection, schedule: Q04DX003 (sc), vehicle: saline) 12 % of control; (dose: 100.0 mg/kg/injection, schedule: Q04DX003 (sc), vehicle: saline) 1 % of control.

`CCCN1COC(OCC)C(C)(C)C1` (centres undefined): the T/C by setting is: (dose: 150.0 mg/kg/injection, schedule: Q04DX003 (sc), vehicle: saline with Tween-80) 92 % of control; under setting [5], 90 % of control; under setting [6], 106 % of control; under setting [7], 107 % of control.

Regarding `NC(CSC(c1ccccc1)(c1ccccc1)c1ccccc1)C(=O)O` (centres undefined), the T/C was 86 % of control (dose: 25.0 mg/kg/injection, schedule: Q01DX010 (sc), vehicle: Klucel (hydroxypropylcellulose) (HPC)) and 155 % of control under setting [8].

`CCCCCC[C@H]([C@H](C)O)n1cnc2c(N)ncnc21`: the T/C runs as follows: (dose: 100.0 mg/kg/injection, schedule: Q01DX010 (sc), vehicle: Klucel (hydroxypropylcellulose) (HPC)) 52 % of control; (dose: 200.0 mg/kg/injection, schedule: Q01DX010 (sc), vehicle: Klucel (hydroxypropylcellulose) (HPC)) 34 % of control.

On to `CCC[CH2][Hg][Cl]`, for which the T/C runs as follows: (dose: 18.75 mg/kg/injection, schedule: Q04DX003 (sc), vehicle: Klucel (hydroxypropylcellulose) (HPC)) 69 % of control; (dose: 37.5 mg/kg/injection, schedule: Q04DX003 (sc), vehicle: Klucel (hydroxypropylcellulose) (HPC)) 53 % of control.

With `CN1N=C(N)c2cn(C3OC(COP(=O)(O)O)C(O)C3O)c3ncnc1c23` (centres undefined), the T/C was 107 % of control (dose: 12.5 mg/kg/injection, schedule: Q01DX010 (sc), vehicle: water); 109 % of control (dose: 25.0 mg/kg/injection, schedule: Q01DX010 (sc), vehicle: water); 81 % of control (dose: 50.0 mg/kg/injection, schedule: Q01DX010 (sc), vehicle: water).

For the compound `Nc1ccn(C2OC(CO)C(O)C2O)c(=O)n1` (centres undefined), the T/C is, setting by setting: (dose: 31.25 mg/kg/injection, schedule: Q01DX010 (sc), vehicle: water) 73 % of control and 95 % of control; (dose: 600.0 mg/kg/injection, schedule: Q04DX003 (sc), vehicle: water) 47 % of control; (dose: 819.2 mg/kg/injection, schedule: Q04DX003 (sc), vehicle: water) 46 % of control; (dose: 1024.0 mg/kg/injection, schedule: Q04DX003 (sc), vehicle: water) 61 % of control; (dose: 1200.0 mg/kg/injection, schedule: Q04DX003 (sc), vehicle: water) 34 % of control; (dose: 1280.0 mg/kg/injection, schedule: Q04DX003 (sc), vehicle: water) 23 % of control. The T/C (dose: 1600.0 mg/kg/injection, schedule: Q04DX003 (sc), vehicle: water) was 20 % of control.

In the case of `CC/C(=C(/CC)c1ccc(O)cc1)c1ccc(O)cc1`, the T/C by setting is: under setting [9], 106 % of control; under setting [3], 105 % of control.

As for `S=c1nc[nH]c2nc[nH]c12`, the T/C runs as follows: (dose: 6.25 mg/kg/injection, schedule: Q01DX010 (sc), vehicle: Klucel (hydroxypropylcellulose) (HPC)) 120 % of control; under setting [8], 51 % of control and 55 % of control.

Regarding `CC(=O)OCC1OC(n2cc(CBr)nn2)C(OC(C)=O)C(OC(C)=O)C1OC(C)=O` (centres undefined), the T/C is, setting by setting: under setting [9], 177 % of control; under setting [3], 101 % of control; under setting [4], 46 % of control.

Consider `NC(=S)N/N=C\c1ncccc1OCc1cccc(N)c1`, for which the T/C reads like this: under setting [5], 158 % of control; under setting [6], 159 % of control; under setting [7], 105 % of control; (dose: 2400.0 mg/kg/injection, schedule: Q04DX003 (sc), vehicle: saline with Tween-80) 96 % of control.

The values are drawn from PubChem BioAssay AID264 (DTP/NCI, 2004).
